Measured values from patent US8945584B2, “Cell culture system of a hepatitis C genotype 3a and 2a chimera” (Hvidovre Hospital, priority 2007, dated 2015).

What was measured:
Huh7.5 cells [1] = experiment: Determination of 50% tissue culture infectious doses (TCID50) of culture supernatants; type: cell-based, human; details: for infectivity titer (TCID50): day 9 post-transfection, one of 6 replicate wells infected with undiluted supernatant
Experimental: To determine the efficiency of the developed system, HCV RNA titers are determined in IU/ml (international units/ml) with Taq-Man Real-Time-PCR and infectious titers are determined with a tissue culture infectious dose-50 method. This titer indicates the dilution of the examined viral stock, at which 50% of the replicate cell cultures used in the essay become infected and is given in TCID50/ml.
In general, the TCID50 of culture supernatants was determined as previously described. Huh7.5 cells were washed with PBS, trypsinized and plated at 6×10^3 cells per well of a poly-D-lysine coated 96 well plate (Nunc). After ˜24 hrs cells were incubated with 10-fold serial dilutions of viral stock cell culture supernatant in complete growth medium. For each dilution, six replicate wells were inoculated. After incubation for 48 hrs the plate was subjected to immuno staining for NS5A as described above. Wells were evaluated by light microscopy and scored positive if at least one positive cell could be detected. TCID50 values were calculated as described by Reed and Muench.
For determination of TCID50 Huh7.5 cells were plated at 6×10^3 cells/well on a poly-D-Lysine coated 96 well plate and infected with serial dilutions of virus containing cell culture supernatant in complete growth medium in replicates of 6 wells per dilution. After incubation for 48 hours cells were stained for NS5A expression. A well was counted positive, if at least one infected cell was visible. Calculation of TCID50 was done as previously described by Reed et al. † Average of 3 independent determinations, * average of 2 independent determinations, +1 determination. HCV RNA titers were determined with an TaqMan assay. Supernatants from transfection experiments were not tested in TaqMan due to DNA/RNA input from the transfection procedure. Specific infectivity was calculated as infectious units (TCID50/ml) per genome number (IU/ml).

Huh7.5 cells [2] = experiment: Percentage of infected cells by immuno-staining for HCV NS5A; type: cell-based, human
Experimental: Analyses were carried out as previously described with modifications. Huh7.5 cells were washed with PBS, trypsinized and plated on chamber slides (Nunc). After ˜24 hours cells were washed twice with PBS and fixed 5 min with ice-cold methanol. After washing 2× with PBS and 1× with PBS/Tween (0.1% Tween-20), slides were blocked with PBS containing bovine serum albumin (BSA, 1%) and skim milk (0.2%) for 1 hour at room temperature. Endogenous peroxidase staining was reduced by adding 3% H202 in PBS for 5 min. After washing as above the 1st antibody (anti-NS5A, 9E10, a generous gift from Charles M. Rice, used at 1:200 in PBS/Tween) was added and incubated at 4° C. overnight. After washing slides were incubated with secondary antibody (ECLTM Anti-mouse IgG, horseradish peroxidase linked whole antibody, Amersham Biosciences, used at 1:300 in PBS/Tween) for 30 min at room temperature. After washing horseradish peroxidase substrate (DAB substrate kit, DAKO) was added. After incubation for 30 min, slides were washed with H2O, mounted with Fluoromount-G (Southern Biotech) and cover slipped. Percentage of infected cells was evaluated by light microscopy assigning values of 0% (no cells infected), 1%, 5%, 10-90% (in steps of 10%), 95% and 100% (all cells infected).

Huh7.5 cells [3] = experiment: Real-time PCR (TaqMan) assay for HCV RNA titers in cell culture supernatants; type: cell-based, human; details: kinetic experiment, inoculated with ~10^4 TCID50, day 6 and 9
Experimental: RNA was purified from 200 μl of heat inactivated (56° C. for 30 min) cell culture supernatant and eluted in a final volume of 50 μl using the Total Nucleic Acid Isolation Kit (Roche) in combination with the Total NA Variable Elution Volume protocol on a MagNA Pure LC Instrument (Roche). As an internal control, Phocine Distemper Virus (PDV) was added to the lysis buffer in a concentration titrated to yield a Ct of ˜32 upon real-time PCR analysis. In parallel to RNA purified from cell culture supernatants, a quantitative HCV standard panel covering RNA concentrations of 0 to 5×10^6 IU/ml in one log increments (OptiQuant HCV Panel, AcroMetrix) was analysed. […] For HCV, primers and a FAM-labelled MGB-probe were directed against the 5′ UTR and were previously shown to perform equivalently against a panel of the six major HCV genotypes in a different TaqMan assay (Engle R E, Bukh J, and Purcell R H, 2007) For PDV, a ready-to-use primer/probe mix was used (Dr. H. G. M. Niesters, Department of Virology, Erasmus Medical Centre, Rotterdam, The Netherlands). […] HCV RNA titers (IU/ml) were calculated using a standard curve created from the known concentrations of the standard panel and their corresponding Ct values (cycle number, at which the normalised fluorescence signal rises above a fixed threshold of 0.2 […] to the amount of template in the PCR reaction). […]

S52/JFH1(A4550C) = experiment: Interferon alfa 2b treatment of infected Huh7.5 cultures, % NS5A positive cells; type: cell-based, hepatitis C virus; details: 5001 U/mL interferon alfa 2b in medium (FIG. 10 legend: 500 IU/mL)
Experimental: (§1) FIG. 10. S52/JFH1 viruses are sensitive to treatment with Interferon alfa. […] Huh7.5 cells were infected with 10^4 TCID50 (MOI 0,003) of the indicated viruses. On day 5 after infection, cultures were evaluated for % of NS5A positive cells (first datapoint) and 4×10^5 cells of the respective culture were plated per well of a 6-well dish. After 24 hrs incubation, treatment with cell culture medium containing 500 IU/mL interferon alfa 2b was started. Interferon containing medium was replaced at the time points indicated by arrows. Cultures were evaluated for the % of NS5A positive cells at the indicated timepoints.
(§2) As proof of principle of using the present invention in testing of anti-hepatitis C virus substances, the effects of interferon alfa, currently used in combination therapy for HCV, were tested on the infected cell culture. […] Thus we treated Huh7.5 cell cultures infected with J6/JFH1, S52/JFH1(T2718G; A4550C) and S52/JFH1(A4550C) with cell culture medium containing 5001 U/mL interferon alfa 2b (FIG. 10). After initiation of treatment, we observed for all cultures a fast decline of HCV antigen positive cells. Thus, for J6/JFH1 and S52/JFH1(T2718G; A4550C) the percentage of NS5A positive cells was 90 and 60 the day prior to treatment, whereas only 20% and 10% NS5A positive cells were detected in the respective cultures on day 3 of treatment ([…]).
(§3) HCV cell culture systems could be important tools for testing of antiviral therapeutics. […] Thus Huh7.5 cell cultures infected with J6/JFH1, S52/JFH1(T2718G; A4550C) and S52/JFH1(A4550C) were treated with cell culture medium containing 5001 U/mL interferon alfa 2b. After initiation of treatment, a fast decline of HCV antigen positive cells was shown for all cultures. Thus, for J6/JFH1 and S52/JFH1(T2718G; A4550C) the percentage of NS5A positive cells was 90 and 60 the day prior to treatment, whereas only 20% and 10% NS5A positive cells were detected in the respective cultures on day 3 of treatment (FIG. 10).

J6/JFH1 = experiment: as above; type: cell-based, hepatitis C virus
Experimental: as §1, §2, §3

S52/JFH1(T2718G; A4550C) = experiment: as above; type: cell-based, hepatitis C virus
Experimental: as §1, §2, §3

[4] = 5001 U/mL interferon alfa 2b in medium (FIG. 10 legend: 500 IU/mL)
[5] = day 6, cultures not treated for 48 hrs

Question: What does the source list for “S52/JFH1: intergenotypic 3a/2a recombinant HCV: Core-NS2 of strain S52, 5' UTR, NS3-NS5B and 3' UTR of JFH1”?
Answer: infectivity titer (TCID50) (Huh7.5 cells [1]): undeterminable; infectivity titer (TCID50) (Huh7.5 cells [1]; listed as pS52/JFH1): non-determinable; Peak infectivity titers after transfection (Huh7.5 cells [1]; days 3, 7 and 9 post-transfection (FIG. 5B)): significantly lower titers; % infected cells (Huh7.5 cells [2]; First experiment, 2nd viral passage (used for kinetic experiment), day 11): 95%; % infected cells (Huh7.5 cells [2]; First experiment, 3rd viral passage (inoculated with 10^2.5 TCID50), day 12): 95%; % infected cells (Huh7.5 cells [2]; First experiment, 3rd viral passage (inoculated with 10^4 TCID50), day 3): 90%; % infected cells (Huh7.5 cells [2]; First experiment, transfection, experimental day 11): 40%; % infected cells (Huh7.5 cells [2]; Second experiment, 1st viral passage, experimental day 8): 95%; % infected cells (Huh7.5 cells [2]; Second experiment, transfection, experimental day 33): 70%; NS5A antigen positive cells (Huh7.5 cells [2]; day 1 after transfection with RNA transcripts): ~10%; time until viruses spread to the entire culture (Huh7.5 cells [2]; naive Huh7.5 cells infected with approximately 10^2.5 TCID50): 12 days; time until viruses spread to the entire culture (Huh7.5 cells [2]; naive Huh7.5 cells infected with approximately 10^3 TCID50): 9 days; time until viruses spread to the entire culture (Huh7.5 cells [2]; naive Huh7.5 cells infected with approximately 10^4 TCID50): 3 days; peak HCV RNA titers (Huh7.5 cells [3]): ~10^7 copies/ml

Question: interferon alfa 2b was tested. Which “HCV antigen positive cells after initiation of treatment” value (“HCV antigen positive cells” for short) (S52/JFH1(A4550C)) did it give?
Answer: fast decline

Question: And the “HCV antigen positive cells” value (J6/JFH1; [4])?
Answer: fast decline

Question: And the NS5A positive cells (J6/JFH1; day 3 of treatment, 90 the day prior to treatment)?
Answer: 20%

Question: And the NS5A positive cells (J6/JFH1; [5])?
Answer: 40%

Question: What about the “HCV antigen positive cells” value (S52/JFH1(T2718G; A4550C); [4]) of the same substance?
Answer: fast decline

Question: And the NS5A positive cells (S52/JFH1(T2718G; A4550C); day 3 of treatment, 60 the day prior to treatment)?
Answer: 10%

Question: What about the NS5A positive cells (S52/JFH1(T2718G; A4550C); [5]) of the same substance?
Answer: 40%
